Experimental data reported in ChEMBL document CHEMBL1201862, “PubChem BioAssay data set” (2004).
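Results reflect a 48-hour exposure of cells in 96-well plates to compound at five concentrations. At the GI50, growth is halved.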 Calls of active or inactive are those of the source. Cut-off read from the data, not from the text of the source: active = GI50 up to about 1.1 µM and inactive = higher.

Columns and labels:
Experiment in all cases: NCI anticancer screen, dose series, 48 h
[1] = system: HCT-15
[2] = system: OVCAR-8
[3] = system: SR
[4] = system: ACHN
[5] = system: HT-29
[6] = system: NCI-H460
[7] = system: SK-MEL-2
[8] = system: U-251
[9] = system: OVCAR-5
[10] = system: T47D
[11] = system: SF-539
[12] = system: SK-MEL-28
[13] = system: A498
[14] = system: HOP-62
[15] = system: A549
[16] = system: SK-OV-3
[17] = system: SK-MEL-5
[18] = system: HOP-92
[19] = system: SW-620
[20] = system: M14
[21] = system: BT-549
[22] = system: COLO 205
[23] = system: HCT-116
[24] = system: NCI-H23
[25] = system: TK-10
[26] = system: SN12C
[27] = system: SF-268
[28] = system: NCI-H522
[29] = system: PC-3
[30] = system: RPMI-8226
[31] = system: K562
[32] = system: IGROV-1
[33] = system: UACC-257
[34] = system: OVCAR-4
[35] = system: Malme-3M
[36] = system: NCI/ADR-RES
[37] = system: UO-31
[38] = system: HCC 2998
[39] = system: OVCAR-3
[40] = system: CAKI-1
[41] = system: KM12
[42] = system: MCF7
[43] = system: MDA-MB-231
[44] = system: Hs-578T
[45] = system: SF-295
[46] = system: DU-145
[47] = system: SNB-75
[48] = system: UACC-62
[49] = system: CCRF-CEM
[50] = system: MDA-N
[51] = system: MOLT-4
[52] = system: RXF 393
[53] = system: MDA-MB-435
[54] = system: 786-0
[55] = system: NCI-H226
[56] = system: EKVX
[57] = system: LOX IMVI
[58] = system: HL-60
[59] = system: SNB-19

## O=C1CC(=O)NC(NN2C(=O)CSC2c2ccc(Cl)cc2)=N1 (configuration not stated)
[1]
  GI50: > 100 µM
[2]
  GI50: 91.6 µM (inactive)
[3]
  GI50: 39.2 µM (inactive)
[4]
  GI50: > 100 µM (inactive)
[5]
  GI50: 34.1 µM (inactive)
[6]
  GI50: 51.3 µM (inactive)
[7]
  GI50: > 100 µM (inactive)
[8]
  GI50: 36.4 µM (inactive)
[9]
  GI50: > 100 µM (inactive)
[10]
  GI50: > 100 µM (inactive)
[11]
  GI50: > 100 µM (inactive)
[12]
  GI50: > 100 µM (inactive)
[13]
  GI50: > 100 µM (inactive)
[14]
  GI50: 24.9 µM (inactive)
[15]
  GI50: > 100 µM (inactive)
[16]
  GI50: > 100 µM (inactive)
[17]
  GI50: > 100 µM (inactive)
[18]
  GI50: > 100 µM (inactive)
[19]
  GI50: > 100 µM (inactive)
[20]
  GI50: 55.6 µM (inactive)
[21]
  GI50: 33.8 µM (inactive)
[22]
  GI50: > 100 µM (inactive)
[23]
  GI50: > 100 µM (inactive)
[24]
  GI50: 25.5 µM (inactive)
[25]
  GI50: > 100 µM (inactive)
[26]
  GI50: 18.4 µM (inactive)
[27]
  GI50: 45 µM (inactive)
[28]
  GI50: > 100 µM (inactive)
[29]
  GI50: > 100 µM (inactive)
[30]
  GI50: > 100 µM (inactive)
[31]
  GI50: > 100 µM (inactive)
[32]
  GI50: > 100 µM (inactive)
[33]
  GI50: > 100 µM (inactive)
[34]
  GI50: > 100 µM (inactive)
[35]
  GI50: 65.8 µM (inactive)
[36]
  GI50: > 100 µM (inactive)
[37]
  GI50: 21.3 µM (inactive)
[38]
  GI50: > 100 µM (inactive)
[39]
  GI50: > 100 µM (inactive)
[40]
  GI50: > 100 µM (inactive)
[41]
  GI50: 32.8 µM (inactive)
[42]
  GI50: 61.1 µM (inactive)
[43]
  GI50: 36.7 µM (inactive)
[44]
  GI50: 25.6 µM (inactive)
[45]
  GI50: > 100 µM (inactive)
[46]
  GI50: > 100 µM (inactive)
[47]
  GI50: > 100 µM (inactive)
[48]
  GI50: 21.8 µM (inactive)
[49]
  GI50: 25.7 µM (inactive)
[50]
  GI50: 54.8 µM (inactive)
[51]
  GI50: 28 µM (inactive)
[52]
  GI50: > 100 µM (inactive)
[53]
  GI50: > 100 µM (inactive)
[54]
  GI50: 37.2 µM (inactive)
[55]
  GI50: > 100 µM (inactive)

## Cn1c2n/c(=N\c3ccc(Cl)cc3)[n+]3ccc4ccccc4c3c-2c([O-])n1-c1ccccc1
[1]
  GI50: > 100 µM
[2]
  GI50: > 100 µM (inactive)
[3]
  GI50: > 100 µM (inactive)
[56]
  GI50: > 100 µM (inactive)
[4]
  GI50: > 100 µM (inactive)
[5]
  GI50: > 100 µM (inactive)
[6]
  GI50: > 100 µM (inactive)
[7]
  GI50: > 100 µM (inactive)
[8]
  GI50: > 100 µM (inactive)
[9]
  GI50: > 100 µM (inactive)
[10]
  GI50: > 100 µM (inactive)
[12]
  GI50: > 100 µM (inactive)
[13]
  GI50: > 100 µM (inactive)
[14]
  GI50: > 100 µM (inactive)
[17]
  GI50: > 100 µM (inactive)
[57]
  GI50: > 100 µM (inactive)
[19]
  GI50: > 100 µM (inactive)
[21]
  GI50: > 100 µM (inactive)
[22]
  GI50: > 100 µM (inactive)
[23]
  GI50: > 100 µM (inactive)
[24]
  GI50: > 100 µM (inactive)
[25]
  GI50: > 100 µM (inactive)
[26]
  GI50: > 100 µM (inactive)
[27]
  GI50: > 100 µM (inactive)
[28]
  GI50: > 100 µM (inactive)
[29]
  GI50: > 100 µM (inactive)
[30]
  GI50: > 100 µM (inactive)
[31]
  GI50: > 100 µM (inactive)
[32]
  GI50: > 100 µM (inactive)
[33]
  GI50: > 100 µM (inactive)
[34]
  GI50: > 100 µM (inactive)
[35]
  GI50: > 100 µM (inactive)
[36]
  GI50: > 100 µM (inactive)
[37]
  GI50: > 100 µM (inactive)
[38]
  GI50: > 100 µM (inactive)
[39]
  GI50: > 100 µM (inactive)
[40]
  GI50: 46.3 µM (inactive)
[41]
  GI50: 42.9 µM (inactive)
[42]
  GI50: > 100 µM (inactive)
[58]
  GI50: > 100 µM (inactive)
[43]
  GI50: > 100 µM (inactive)
[44]
  GI50: > 100 µM (inactive)
[45]
  GI50: > 100 µM (inactive)
[59]
  GI50: > 100 µM (inactive)
[46]
  GI50: > 100 µM (inactive)
[47]
  GI50: > 100 µM (inactive)
[48]
  GI50: > 100 µM (inactive)
[50]
  GI50: > 100 µM (inactive)
[51]
  GI50: > 100 µM (inactive)
[52]
  GI50: > 100 µM (inactive)
[53]
  GI50: > 100 µM (inactive)
[54]
  GI50: > 100 µM (inactive)
[55]
  GI50: > 100 µM (inactive)

## Fc1cc(C2=Nn3c(CNc4ccc(Cl)cc4)nnc3S/C2=C\c2ccc(-c3ccc(Cl)cc3)o2)c(Cl)cc1Cl
[1]
  GI50: > 100 µM
[2]
  GI50: 51.1 µM (inactive)
[3]
  GI50: 29.6 µM (inactive)
[56]
  GI50: 7.52 µM (inactive)
[4]
  GI50: 34.9 µM (inactive)
[5]
  GI50: 32.8 µM (inactive)
[6]
  GI50: 65.3 µM (inactive)
[7]
  GI50: 22.6 µM (inactive)
[8]
  GI50: 18.6 µM (inactive)
[9]
  GI50: 18.7 µM (inactive)
[10]
  GI50: 41.7 µM (inactive)
[12]
  GI50: 67 µM (inactive)
[13]
  GI50: 17.5 µM (inactive)
[14]
  GI50: 21.8 µM (inactive)
[15]
  GI50: 35.6 µM (inactive)
[17]
  GI50: 26.1 µM (inactive)
[57]
  GI50: 22.8 µM (inactive)
[19]
  GI50: > 100 µM (inactive)
[20]
  GI50: 53.3 µM (inactive)
[21]
  GI50: > 100 µM (inactive)
[22]
  GI50: 14.3 µM (inactive)
[23]
  GI50: 63.2 µM (inactive)
[24]
  GI50: 81.8 µM (inactive)
[25]
  GI50: 17.5 µM (inactive)
[26]
  GI50: 33.3 µM (inactive)
[27]
  GI50: 53.2 µM (inactive)
[28]
  GI50: 38 µM (inactive)
[29]
  GI50: 14.9 µM (inactive)
[30]
  GI50: 23.2 µM (inactive)
[31]
  GI50: 11.9 µM (inactive)
[32]
  GI50: 17.7 µM (inactive)
[33]
  GI50: > 100 µM (inactive)
[35]
  GI50: 17.3 µM (inactive)
[36]
  GI50: 6.53 µM (inactive)
[37]
  GI50: 11.8 µM (inactive)
[38]
  GI50: 57.8 µM (inactive)
[39]
  GI50: 29.6 µM (inactive)
[40]
  GI50: 23.6 µM (inactive)
[41]
  GI50: > 100 µM (inactive)
[42]
  GI50: 38.8 µM (inactive)
[58]
  GI50: > 100 µM (inactive)
[43]
  GI50: 10.2 µM (inactive)
[44]
  GI50: 46.7 µM (inactive)
[45]
  GI50: 22.3 µM (inactive)
[59]
  GI50: 44 µM (inactive)
[46]
  GI50: 65 µM (inactive)
[48]
  GI50: 13.6 µM (inactive)
[49]
  GI50: 67.1 µM (inactive)
[50]
  GI50: > 100 µM (inactive)
[51]
  GI50: 3.33 µM (inactive)
[52]
  GI50: 13.4 µM (inactive)
[53]
  GI50: 68.5 µM (inactive)
[54]
  GI50: 32.3 µM (inactive)
[55]
  GI50: 26.5 µM (inactive)
